Columns and labels:
[1] = DRUGMATRIX: Nicotinic Acetylcholine radioligand binding (ligand: [125I] Epibatidine); type: cell membranes, Membrane; details: imr-32; Not Active = under 50% inhibition at 10 µM
Interstitial collagenase = molecular target: T1, Interstitial collagenase (Homo sapiens, UniProt P03956); type: tissue-based, Rheumatoid synovial fibroblasts;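 also: MMP-1 enzyme inhibition assay using a peptide substrate; in other assays of this panel Not Active means under 50% inhibition at 10 µM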
T1 sequence (P03956 whole entry): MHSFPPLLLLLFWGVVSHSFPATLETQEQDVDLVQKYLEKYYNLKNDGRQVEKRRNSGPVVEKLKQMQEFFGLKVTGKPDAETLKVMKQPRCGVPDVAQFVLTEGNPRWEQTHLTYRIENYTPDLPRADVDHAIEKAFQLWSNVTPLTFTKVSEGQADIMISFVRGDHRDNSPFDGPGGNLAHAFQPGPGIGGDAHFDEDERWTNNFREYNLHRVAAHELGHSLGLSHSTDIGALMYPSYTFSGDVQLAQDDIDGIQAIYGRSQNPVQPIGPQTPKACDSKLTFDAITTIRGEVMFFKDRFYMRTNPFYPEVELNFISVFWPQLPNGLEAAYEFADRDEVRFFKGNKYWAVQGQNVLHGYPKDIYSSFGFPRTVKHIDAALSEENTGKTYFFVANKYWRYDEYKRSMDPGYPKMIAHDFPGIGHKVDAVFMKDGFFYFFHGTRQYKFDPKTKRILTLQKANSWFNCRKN

[2] = DRUGMATRIX: Phorbol Ester radioligand binding (ligand: [3H] PDBu); type: cell membranes, Mus musculus, ICR, Brain, Membrane; details: Not Active = under 50% inhibition at 10 µM
[3] = DRUGMATRIX: Phosphodiesterase PDE4 enzyme inhibition (substrate: [3H]cAMP + cAMP); details: u-937; Not Active = under 50% inhibition at 10 µM
[4] = molecular target: T2, Muscarinic acetylcholine receptor M2 (Homo sapiens, UniProt P08172); type: cell membranes, CHO-K1, Membrane; details: cho-k1; also: in other assays of this panel Not Active means under 50% inhibition at 10 µM
T2 sequence (P08172 whole entry): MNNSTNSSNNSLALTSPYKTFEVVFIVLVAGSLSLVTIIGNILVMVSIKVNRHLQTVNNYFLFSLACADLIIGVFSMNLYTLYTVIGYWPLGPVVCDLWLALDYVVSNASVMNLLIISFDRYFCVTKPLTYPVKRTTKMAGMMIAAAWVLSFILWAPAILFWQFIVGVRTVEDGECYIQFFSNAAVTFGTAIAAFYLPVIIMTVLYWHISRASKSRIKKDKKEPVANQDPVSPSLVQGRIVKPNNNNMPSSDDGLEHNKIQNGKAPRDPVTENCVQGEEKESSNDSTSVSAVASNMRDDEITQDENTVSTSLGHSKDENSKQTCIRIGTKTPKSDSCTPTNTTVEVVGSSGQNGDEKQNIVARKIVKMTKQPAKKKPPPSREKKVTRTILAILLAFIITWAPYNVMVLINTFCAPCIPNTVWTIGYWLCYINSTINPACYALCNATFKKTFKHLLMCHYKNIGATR

[5] = molecular target: T3, Type-2 angiotensin II receptor (Homo sapiens, UniProt P50052); type: cell-based; details: cho-k1; also: in other assays of this panel Not Active means under 50% inhibition at 10 µM
T3 sequence (P50052 whole entry): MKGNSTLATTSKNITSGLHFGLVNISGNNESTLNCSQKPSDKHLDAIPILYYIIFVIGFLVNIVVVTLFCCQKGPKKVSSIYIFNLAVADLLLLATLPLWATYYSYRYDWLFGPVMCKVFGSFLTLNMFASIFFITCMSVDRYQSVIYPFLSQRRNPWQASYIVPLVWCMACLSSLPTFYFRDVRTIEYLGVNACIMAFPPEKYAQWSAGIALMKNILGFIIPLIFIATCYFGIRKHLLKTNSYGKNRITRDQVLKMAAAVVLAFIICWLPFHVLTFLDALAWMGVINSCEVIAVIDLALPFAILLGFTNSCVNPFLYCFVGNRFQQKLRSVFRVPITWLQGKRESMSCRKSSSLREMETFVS

[6] = molecular target: T4, Amine oxidase [flavin-containing] A (Homo sapiens, UniProt P21397); test: DRUGMATRIX: Monoamine Oxidase MAO-A enzyme inhibition (substrate: Kynuramine); parameters: species or system BTI-TN-5B1-4; details: bti-tn-5b1-4; Not Active = under 50% inhibition at 10 µM
T4 sequence (P21397 whole entry): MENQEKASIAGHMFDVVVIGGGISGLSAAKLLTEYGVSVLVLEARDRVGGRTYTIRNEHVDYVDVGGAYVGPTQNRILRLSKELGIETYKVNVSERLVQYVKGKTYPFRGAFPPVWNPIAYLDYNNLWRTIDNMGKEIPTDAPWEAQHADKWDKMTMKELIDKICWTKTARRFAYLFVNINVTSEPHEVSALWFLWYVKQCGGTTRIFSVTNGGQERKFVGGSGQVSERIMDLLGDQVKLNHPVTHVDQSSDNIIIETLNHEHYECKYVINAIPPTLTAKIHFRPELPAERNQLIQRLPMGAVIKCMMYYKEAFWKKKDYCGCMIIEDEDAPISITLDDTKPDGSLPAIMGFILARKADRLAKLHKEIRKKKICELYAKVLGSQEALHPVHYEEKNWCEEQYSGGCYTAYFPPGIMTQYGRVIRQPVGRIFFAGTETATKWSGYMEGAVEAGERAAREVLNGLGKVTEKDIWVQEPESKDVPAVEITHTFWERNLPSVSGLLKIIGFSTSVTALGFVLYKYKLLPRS

[7] = molecular target: T5, Polyunsaturated fatty acid lipoxygenase ALOX15 (Oryctolagus cuniculus, UniProt P12530); test: biochemical; type: tissue-based, Reticulocytes; details: reticulocytes;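 also: inhibition of 15-lipoxygenase enzyme activity measured with linoleic acid as the substrate; in other assays of this panel Not Active means under 50% inhibition at 10 µM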
T5 sequence (P12530 whole entry): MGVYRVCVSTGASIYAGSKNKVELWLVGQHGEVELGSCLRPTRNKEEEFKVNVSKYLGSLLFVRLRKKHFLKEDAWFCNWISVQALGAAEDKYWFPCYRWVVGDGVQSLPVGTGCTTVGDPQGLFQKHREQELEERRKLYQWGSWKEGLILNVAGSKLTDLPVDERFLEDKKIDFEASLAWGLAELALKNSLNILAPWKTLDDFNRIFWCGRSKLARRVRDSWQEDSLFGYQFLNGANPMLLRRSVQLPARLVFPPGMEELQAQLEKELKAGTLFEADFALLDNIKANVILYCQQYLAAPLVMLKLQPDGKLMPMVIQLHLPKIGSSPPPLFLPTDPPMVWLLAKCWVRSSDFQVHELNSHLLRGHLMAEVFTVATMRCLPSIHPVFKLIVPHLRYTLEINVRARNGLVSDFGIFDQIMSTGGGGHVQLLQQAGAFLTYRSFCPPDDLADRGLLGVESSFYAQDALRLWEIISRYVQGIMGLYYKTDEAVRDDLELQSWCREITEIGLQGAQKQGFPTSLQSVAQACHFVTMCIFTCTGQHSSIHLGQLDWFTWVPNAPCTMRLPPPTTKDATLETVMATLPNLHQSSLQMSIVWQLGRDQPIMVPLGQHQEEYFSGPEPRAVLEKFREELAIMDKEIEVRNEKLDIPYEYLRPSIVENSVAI

Nc1ccc(S(N)(=O)=O)cc1 [SULFANILAMIDE]
Not Active: IC50 [1] | Ki [1] | IC50 (Interstitial collagenase) | IC50 [2] | Ki [2] | IC50 [3] | Ki [3] | IC50 [4] | IC50 [5] | IC50 [6] | IC50 [7]

Cc1ncc([N+](=O)[O-])n1CC(C)O (centres undefined) [SECNIDAZOLE]
Not Active: IC50 [1] | Ki [1] | IC50 (Interstitial collagenase) | IC50 [2] | Ki [2] | IC50 [3] | Ki [3] | IC50 [4] | IC50 [5] | IC50 [6] | IC50 [7]

Oc1c(I)cc(I)c2cccnc12 [IODOQUINOL]
Not Active: IC50 [1] | Ki [1] | IC50 (Interstitial collagenase) | IC50 [2] | Ki [2] | IC50 [3] | Ki [3] | IC50 [4] | IC50 [5] | IC50 [6] | IC50 [7]

NNC(=O)c1ccncc1 [ISONIAZID]
Not Active: IC50 [1] | Ki [1] | IC50 (Interstitial collagenase) | IC50 [2] | Ki [2] | IC50 [3] | Ki [3] | IC50 [4] | IC50 [5] | IC50 [6] | IC50 [7]

— ChEMBL document CHEMBL1909046, “DrugMatrix in vitro pharmacology data”
